Results published in US20240122930A1, “INTEGRIN INHIBITORS AND USES THEREOF IN COMBINATION WITH OTHER AGENTS” (Pliant Therapeutics, Inc., priority 2022, published 2024).
Where two headings read alike, the source gives them in different places.

System: participants with idiopathic pulmonary fibrosis (IPF)
[1] = 40 mg (n = 22), 12 weeks, listed as Cmpd 5
[2] = 80 mg (n = 23), 12 weeks, listed as Cmpd 5
[3] = 160 mg (n = 22), 12 weeks, listed as Cmpd 5
[4] = 320 mg (n = 22), treatment up to 40 weeks

Text: The groups were stratified for the use of nintedanib or pirfenidone. The groups were screened 28 days before the Day 1 of the study. At Day 1, baseline values were collected. During week 12, the subjects received the last dose, and the study was ended at week 14. Primary and secondary endpoints of the study included safety, tolerability, and PK. Exploratory endpoints included change in FVC over 12 weeks; High Resolution CT-based Quantitative Lung Fibrosis (QLF) imaging; patient-reported outcome (PRO): VAS-cough severity; and effect on selected biomarkers.
The groups were stratified for the use of nintedanib or pirfenidone. The screening was done 28 days before Day 1 and the baseline was measured on Day 1. The last dose was on Week 12, and the end of study was on Week 14. The primary and secondary endpoints include safety, tolerability, and PK. Exploratory Endpoints include change in Forced Vital Capacity (FVC) over 12 weeks, High Resolution CT-based Quantitative Lung Fibrosis (QLF) imaging, and effect on selected biomarkers.
The groups were stratified for the use of nintedanib or pirfenidone. The groups were screened 28 days before the Day 1 of the study. At Day 1, baseline values were collected. The study was continued up to Week 48. The treatment duration per protocol is at least 24 weeks and at most 48 weeks. For the study, the primary and secondary endpoints evaluated in the trial were safety, tolerability, and pharmacokinetics. The exploratory endpoints evaluated included the change in FVC over 12 and 24 weeks; high Resolution CT-based Quantitative Lung Fibrosis (QLF) imaging; patient-reported cough severity; and effect on selected biomarkers.

In the case of `COCCN(CCCCc1ccc2c(n1)NCCC2)CC[C@H](Nc1ncnc2ccccc12)C(=O)O` [Compound 5, (S)-4-((2-methoxyethyl) (4-(5,6,7,8-tetrahydro-1,8-naphthyridin-2-yl)butyl)amino)-2-(quinazolin-4-ylamino) butanoic acid], the “Any AEs, % of participants” value (40 mg (n = 22), 12 weeks) is reported as “(72.7) %”, the “Any AEs, participants reporting” value (40 mg (n = 22), 12 weeks) is reported as 16 n and the “Serious TEAE” value (40 mg (n = 22), 12 weeks) is reported as 1 n. For the same compound, the “Serious TEAE related to study drug” value (40 mg (n = 22), 12 weeks) was 0 n, the “Serious TEAE, % of participants” value (40 mg (n = 22), 12 weeks) was “(4.5) %” and the “TEAE Diarrhea (any causality), % of participants” value (from here on “TEAE Diarrhea (any causality), %”) (40 mg (n = 22), 12 weeks) was “(9.1) %”. For the same compound, the “TEAE Diarrhea (any causality), participants reporting” value (40 mg (n = 22), 12 weeks) was 2 n, the “TEAE Diarrhea related to study drug, % of participants” value (40 mg (n = 22), 12 weeks) was “(4.5) %” and the “TEAE Diarrhea related to study drug, participants reporting” value (40 mg (n = 22), 12 weeks) was 1 n. For the same compound, the “TEAE Leading to Death” value (40 mg (n = 22), 12 weeks) was 0 n, the “TEAE Leading to Early Termination from Study” value (40 mg (n = 22), 12 weeks) was 0 n and the “TEAE Leading to Interruption of Study Drug” value (40 mg (n = 22), 12 weeks) was 0 n. The “TEAE Leading to Withdrawal of Study Drug” value (40 mg (n = 22), 12 weeks) was 0 n, the “TEAE of CTCAE Grade 3 or Higher” value (40 mg (n = 22), 12 weeks) was 2 n and the “TEAE of CTCAE Grade 3 or Higher related to study drug” value (40 mg (n = 22), 12 weeks) was 0 n. For the same compound, the “TEAE of CTCAE Grade 3 or Higher, % of participants” value (40 mg (n = 22), 12 weeks) was “(9.1) %”, the “TEAE related to study drug” value (40 mg (n = 22), 12 weeks) was 4 n and the “TEAE related to study drug, % of participants” value (“TEAE related to study drug, %” for short) (40 mg (n = 22), 12 weeks) was “(18.2) %”. For the same compound, the “TEAE, % of participants” value (40 mg (n = 22), 12 weeks) was “(72.7) %”, the “TEAE, participants reporting” value (40 mg (n = 22), 12 weeks) was 16 n and the “Any AEs, % of participants” value [1] was 72.7%. The “Serious TEAE, % of participants” value [1] was 4.5%, the “TEAE Diarrhea (any causality), %” value [1] was 9.1% and the “TEAE Diarrhea related to study drug, % of participants” value [1] was 4.5%. For the same compound, the “TEAE of CTCAE Grade 3 or Higher, % of participants” value [1] was 9.1%, the “TEAE related to study drug, %” value [1] was 18.2% and the “TEAE, % of participants” value [1] was 72.7%. The “Any AEs, % of participants” value (80 mg (n = 23), 12 weeks) was “(65.2) %”, the “Any AEs, participants reporting” value (80 mg (n = 23), 12 weeks) was 15 n and the “Serious TEAE” value (80 mg (n = 23), 12 weeks) was 0 n. The “Serious TEAE related to study drug” value (80 mg (n = 23), 12 weeks) was 0 n, the “TEAE Diarrhea (any causality), %” value (80 mg (n = 23), 12 weeks) was “(21.7) %” and the “TEAE Diarrhea (any causality), participants reporting” value (80 mg (n = 23), 12 weeks) was 5 n. The “TEAE Diarrhea related to study drug, % of participants” value (80 mg (n = 23), 12 weeks) was “(13.0) %”, the “TEAE Diarrhea related to study drug, participants reporting” value (80 mg (n = 23), 12 weeks) was 3 n and the “TEAE Leading to Death” value (80 mg (n = 23), 12 weeks) was 0 n. The “TEAE Leading to Early Termination from Study” value (80 mg (n = 23), 12 weeks) was 0 n, the “TEAE Leading to Interruption of Study Drug” value (80 mg (n = 23), 12 weeks) was 0 n and the “TEAE Leading to Withdrawal of Study Drug” value (80 mg (n = 23), 12 weeks) was 0 n. For the same compound, the “TEAE of CTCAE Grade 3 or Higher” value (80 mg (n = 23), 12 weeks) was 0 n, the “TEAE of CTCAE Grade 3 or Higher related to study drug” value (80 mg (n = 23), 12 weeks) was 0 n and the “TEAE related to study drug” value (80 mg (n = 23), 12 weeks) was 7 n. For the same compound, the “TEAE related to study drug, %” value (80 mg (n = 23), 12 weeks) was “(30.4) %”, the “TEAE, % of participants” value (80 mg (n = 23), 12 weeks) was “(65.2) %” and the “TEAE, participants reporting” value (80 mg (n = 23), 12 weeks) was 15 n. For the same compound, the “Any AEs, % of participants” value [2] was 65.2%, the “TEAE Diarrhea (any causality), %” value [2] was 21.7% and the “TEAE Diarrhea related to study drug, % of participants” value [2] was 13.0%. For the same compound, the “TEAE related to study drug, %” value [2] was 30.4%, the “TEAE, % of participants” value [2] was 65.2% and the “Any AEs, % of participants” value (160 mg (n = 22), 12 weeks) was “(68.1) %”. For the same compound, the “Any AEs, participants reporting” value (160 mg (n = 22), 12 weeks) was 15 n, the “Serious TEAE” value (160 mg (n = 22), 12 weeks) was 2 n and the “Serious TEAE related to study drug” value (160 mg (n = 22), 12 weeks) was 0 n. The “Serious TEAE, % of participants” value (160 mg (n = 22), 12 weeks) was “(9.1) %”, the “TEAE Diarrhea (any causality), %” value (160 mg (n = 22), 12 weeks) was “(22.7) %” and the “TEAE Diarrhea (any causality), participants reporting” value (160 mg (n = 22), 12 weeks) was 5 n. For the same compound, the “TEAE Diarrhea related to study drug, % of participants” value (160 mg (n = 22), 12 weeks) was “(18.2) %”, the “TEAE Diarrhea related to study drug, participants reporting” value (160 mg (n = 22), 12 weeks) was 4 n and the “TEAE Leading to Death” value (160 mg (n = 22), 12 weeks) was 0 n. The “TEAE Leading to Early Termination from Study” value (160 mg (n = 22), 12 weeks) was 0 n, the “TEAE Leading to Interruption of Study Drug” value (160 mg (n = 22), 12 weeks) was 1 n and the “TEAE Leading to Interruption of Study Drug, % of participants” value (160 mg (n = 22), 12 weeks) was “(4.5) %”. For the same compound, the “TEAE Leading to Withdrawal of Study Drug” value (160 mg (n = 22), 12 weeks) was 0 n, the “TEAE of CTCAE Grade 3 or Higher” value (160 mg (n = 22), 12 weeks) was 2 n and the “TEAE of CTCAE Grade 3 or Higher related to study drug” value (160 mg (n = 22), 12 weeks) was 1 n. The “TEAE of CTCAE Grade 3 or Higher related to study drug, % of participants” value (160 mg (n = 22), 12 weeks) was “(4.5) %”, the “TEAE of CTCAE Grade 3 or Higher, % of participants” value (160 mg (n = 22), 12 weeks) was “(9.1) %” and the “TEAE related to study drug” value (160 mg (n = 22), 12 weeks) was 4 n. The “TEAE related to study drug, %” value (160 mg (n = 22), 12 weeks) was “(18.2) %”, the “TEAE, % of participants” value (160 mg (n = 22), 12 weeks) was “(63.6) %” and the “TEAE, participants reporting” value (160 mg (n = 22), 12 weeks) was 14 n. For the same compound, the “Any AEs, % of participants” value [3] was 68.2%, the “Serious TEAE, % of participants” value [3] was 9.1% and the “TEAE Diarrhea (any causality), %” value [3] was 22.7%. For the same compound, the “TEAE Diarrhea related to study drug, % of participants” value [3] was 18.2%, the “TEAE Leading to Interruption of Study Drug, % of participants” value [3] was 4.5% and the “TEAE of CTCAE Grade 3 or Higher related to study drug, % of participants” value [3] was 4.5%. For the same compound, the “TEAE of CTCAE Grade 3 or Higher, % of participants” value [3] was 9.1%, the “TEAE related to study drug, %” value [3] was 18.2% and the “TEAE, % of participants” value [3] was 63.6%. For the same compound, the “Any AEs, % of participants” value (320 mg (n = 21), 12 weeks) was 85.7%, the “Any AEs, participants reporting” value (320 mg (n = 21), 12 weeks) was 18 n and the “Serious TEAE” value (320 mg (n = 21), 12 weeks) was 1 n. For the same compound, the “Serious TEAE related to study drug” value (320 mg (n = 21), 12 weeks) was 0 n, the “Serious TEAE, % of participants” value (320 mg (n = 21), 12 weeks) was 4.8% and the “TEAE Diarrhea (any causality), %” value (320 mg (n = 21), 12 weeks) was 14.3%. For the same compound, the “TEAE Diarrhea (any causality), participants reporting” value (320 mg (n = 21), 12 weeks) was 3 n, the “TEAE Diarrhea related to study drug, % of participants” value (320 mg (n = 21), 12 weeks) was 9.5% and the “TEAE Diarrhea related to study drug, participants reporting” value (320 mg (n = 21), 12 weeks) was 2 n. For the same compound, the “TEAE Leading to Death” value (320 mg (n = 21), 12 weeks) was 1 n, the “TEAE Leading to Death, % of participants” value (320 mg (n = 21), 12 weeks) was 4.8% and the “TEAE Leading to Early Termination from Study” value (320 mg (n = 21), 12 weeks) was 3 n. For the same compound, the “TEAE Leading to Early Termination from Study, % of participants” value (320 mg (n = 21), 12 weeks) was 14.3%, the “TEAE Leading to Interruption of Study Drug” value (320 mg (n = 21), 12 weeks) was 1 n and the “TEAE Leading to Interruption of Study Drug, % of participants” value (320 mg (n = 21), 12 weeks) was 4.8%. For the same compound, the “TEAE Leading to Withdrawal of Study Drug” value (320 mg (n = 21), 12 weeks) was 3 n, the “TEAE Leading to Withdrawal of Study Drug, % of participants” value (320 mg (n = 21), 12 weeks) was 14.3% and the “TEAE of CTCAE Grade 3 or Higher” value (320 mg (n = 21), 12 weeks) was 2 n. For the same compound, the “TEAE of CTCAE Grade 3 or Higher related to study drug” value (320 mg (n = 21), 12 weeks) was 0 n, the “TEAE of CTCAE Grade 3 or Higher, % of participants” value (320 mg (n = 21), 12 weeks) was 9.5% and the “TEAE related to study drug” value (320 mg (n = 21), 12 weeks) was 4 n. The “TEAE related to study drug, %” value (320 mg (n = 21), 12 weeks) was 19.0%, the “TEAE, % of participants” value (320 mg (n = 21), 12 weeks) was 81.0% and the “TEAE, participants reporting” value (320 mg (n = 21), 12 weeks) was 17 n. For the same compound, the “Serious TEAE” value [4] was 2 n, the “Serious TEAE related to study drug” value [4] was 0 n and the “Serious TEAE, % of participants” value [4] was “(9.1) %”. For the same compound, the “TEAE Cough related to study drug” value [4] was 0 n, the “TEAE Cough, % of participants” value [4] was “(13.6) %” and the “TEAE Cough, participants reporting” value [4] was 3 n. The “TEAE Diarrhea related to study drug” value [4] was 4 n, the “TEAE Diarrhea related to study drug, % of participants” value [4] was “(18.2) %” and the “TEAE Diarrhea, % of participants” value [4] was “(31.8) %”. For the same compound, the “TEAE Diarrhea, participants reporting” value [4] was 7 n, the “TEAE Dyspnoea related to study drug” value [4] was 0 n and the “TEAE Dyspnoea, % of participants” value [4] was “(22.7) %”.
